Earlier results in patent US4291169A, “Substituted naphthoic acids” (American Cyanamid Company, priority 1980, dated 1981).

Assays:
[1] = tested on: collagenase; conditions: Woolley et al. (1978); Seifter and Harper (1971)
[2] = tested on: alkali burned rabbit; conditions: directly applied to corneal ulcerations
[3] = tested on: collagenase; conditions: Thromb. Res., 10(4), 605-11 (1977)
[4] = compared with cysteine
[5] = tested on: corneal ulceration; conditions: human

O[C@H](CS)[C@H](O)CS (relative stereo) [dithiothretol]
inhibition of connective tissue destruction / collagenase (in words) [1]: collagenase inhibitors

c1cnc2c(c1)ccc1cccnc12 [1,10-phenanthroline]
inhibition of connective tissue destruction / collagenase (in words) [1]: collagenase inhibitors

O=C([O-])CN(CCN(CC(=O)[O-])CC(=O)[O-])CC(=O)[O-].[Ca+2].[Ca+2] [Calcium ethylenediaminetetraacetate]
frequency of ulceration (in words) [2]: reduce the frequency of ulceration

Cc1ccc(C(=O)Nc2ccc(S(=O)(=O)O)c3cc(S(=O)(=O)O)cc(S(=O)(=O)O)c23)cc1NC(=O)c1cccc(NC(=O)Nc2cccc(C(=O)Nc3cc(C(=O)Nc4ccc(S(=O)(=O)O)c5cc(S(=O)(=O)O)cc(S(=O)(=O)O)c45)ccc3C)c2)c1 [Suramin]
inhibition of the activity of collagenase (in words) [3]: not inhibiting the action of collagenase

CC(=O)N[C@@H](CS)C(=O)O [acetylcysteine]
stability (in words) [4]: greater stability | frequency of ulceration (in words) [2]: reduce the frequency of ulceration | effect in treatment of acute and chronic corneal ulceration (in words) [5]: effective in the treatment of acute and chronic corneal ulceration

N[C@@H](CS)C(=O)O [cysteine]
inhibition of connective tissue destruction / collagenase (in words) [1]: collagenase inhibitors | effect in treatment of acute and chronic corneal ulceration (in words) [5]: effective in the treatment of acute and chronic corneal ulceration

Cc1cc(-c2ccc(/N=N/c3c(S(=O)(=O)O)cc4cc(S(=O)(=O)O)cc(N)c4c3O)c(C)c2)ccc1/N=N/c1c(S(=O)(=O)O)cc2cc(S(=O)(=O)O)cc(N)c2c1O [trypan blue]
inhibition of the activity of collagenase (in words) [3]: inhibiting the activity of collagenase, or a proteinase contaminant in the collagenase preparation

sodium auriothiomalate
inhibition of connective tissue destruction / collagenase (in words) [1]: collagenase inhibitors

α2 -macroglobulin: Naturally occurring collagnase inhibitors include the serum components, α2 -macroglobulin and β1-anticollagenase
inhibition of connective tissue destruction / collagenase (in words) [1]: Naturally occurring collagnase inhibitors
